One series is described as follows: Mouse blood stability. Type of series: in vitro ADME, CD-1 mice. Conditions: CD-1, mouse, whole blood (EDTA as anticoagulant), 37 °C, SAR peptides, read-out: Blood stability (t1/2) (converted). How it is done: Stability assays were performed using freshly collected matrices from CD-1 mice, with anticoagulant as stated per dataset. Compound stocks in DMSO were tested at 5 μM final concentration (0.5% (v/v) DMSO). Compounds were incubated in blood or plasma at 37 °C for 24 h, with sampling at 0, 1, 2, 4, 6 and 24 h. Samples were prepared via protein precipitation using organic solvent containing internal standard, and analyzed by LC-MS/MS. Compound remaining was quantified based on the ratio of analyte to internal standard, and the half-life (t1/2) was calculated from a log linear plot of % remaining versus time.

Series [1] deals with T1, EcPBP3 (Escherichia coli, UniProt P0AD68).
T1 construct: For assays, selections and SPR a construct with residues 60–588 which has the N-terminal domain, but not the transmembrane helix, was used; made in house
Kind of series: SPR binding assay on immobilised EcPBP3. Conditions: 37 °C, kinetic fitting; NB = no binding at 2500 nM (Tables S-4, S-5) or 5000 nM (Table 1); read-out: Kd (nM) by SPR (geomean). In a few lines: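 EcPBP3 amine-coupled to CM5 chip (1500-2500 RU); compounds injected at 37 °C in 10 mM HEPES pH 8.0, 200 mM NaCl, 0.05% Tween-20, 2% DMSO, 50 μL min^–1, 150 s contact, 2400 s dissociation. Double-referenced sensorgrams kinetically fitted for Kd; geometric mean of ≥2 biological replicates.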

The subject of another series is E. coli GKCW102 (EcPore). Conditions: caMHB; biological replicates or their range. The procedure:
To evaluate the engagement of EcPBP3 by a bicyclic peptide in whole cells lacking the outer membrane permeability barrier, peptides were screened in ‘hyperporinated’ E. coli strains in which a constitutively open FhuA pore (FhuAΔC/Δ4L, lacking N-terminal cork domain and external loops) was chromosomally expressed under control of an arabinose-inducible promoter.
Minimal inhibition concentration (MIC) assays were performed in accordance with CLSI standards, using cation-adjusted Mueller Hinton broth (caMHB; Sigma Aldrich) unless otherwise specified. Induction of pore expression in hyperporinated strains E. coli GKCW101 and GKCW102 was performed by addition of 0.1% (w/v) L-arabinose to cultures at OD600 ~ 0.3, with caMHB as the culture medium.

Series [2] addresses T1, EcPBP3. Kind of series: Fluorescence polarisation competition assay with BOCILLIN-FL as tracer. Conditions: competition format, NB, non-binder (100 μM top concentration); for IC50: read-out: IC50 (nM) by fluorescence polarisation with Bocillin FL as tracer, Geometric mean (Lower 95% CI of geo. Mean; Upper 95% CI of geo. Mean, n=number of values). Type of series: binding. How it is done:
Binding of output peptides to EcPBP3 was evaluated using a fluorescence polarisation (FP) assay.
[…] 10 µL of protein (9.4 nM) was mixed with either 5 µL of peptide or 5 µL of buffer and then the assay was initiated by the addition of 10 µL of tracer (1 nM) (final volume 25 µL), in a black 384 low bind, low volume plate (Corning). The buffer was 10 mM HEPES (Sigma), 2% (v/v) glycerol (Sigma), 300 mM NaCl (Sigma), adjusted to pH 8. The plate was incubated for 1 h at 25 °C and then read in a PHERAstar FS (BMG) using with an “FP 485 520 520” optic module (excitation 485 nm, emission 520 nm). The gain was determined immediately prior to the read on a tracer-only well.
Dotmatics (Dotmatics) workflows performing the above calculations were used to process the data. Values quoted are the geometric means of at least 2 repeats.
A general note: In fluorescence polarisation assays a small probe gives low polarisation when free and higher when bound to something large.

9 compounds from article PMC12120022, “Discovery and chemical optimisation of a potent, Bi-cyclic antimicrobial inhibitor of Escherichia coli PBP3” (Communications Biology, 2025) can be followed below.

Where a SMILES comes first, the peptide text is derived from it. Bounds are passed on as bounds.

The term Kd denotes a measure of binding affinity in units of concentration. The IC50 is the midpoint of a concentration-inhibition curve.

T1 sequence (P0AD68 60-588): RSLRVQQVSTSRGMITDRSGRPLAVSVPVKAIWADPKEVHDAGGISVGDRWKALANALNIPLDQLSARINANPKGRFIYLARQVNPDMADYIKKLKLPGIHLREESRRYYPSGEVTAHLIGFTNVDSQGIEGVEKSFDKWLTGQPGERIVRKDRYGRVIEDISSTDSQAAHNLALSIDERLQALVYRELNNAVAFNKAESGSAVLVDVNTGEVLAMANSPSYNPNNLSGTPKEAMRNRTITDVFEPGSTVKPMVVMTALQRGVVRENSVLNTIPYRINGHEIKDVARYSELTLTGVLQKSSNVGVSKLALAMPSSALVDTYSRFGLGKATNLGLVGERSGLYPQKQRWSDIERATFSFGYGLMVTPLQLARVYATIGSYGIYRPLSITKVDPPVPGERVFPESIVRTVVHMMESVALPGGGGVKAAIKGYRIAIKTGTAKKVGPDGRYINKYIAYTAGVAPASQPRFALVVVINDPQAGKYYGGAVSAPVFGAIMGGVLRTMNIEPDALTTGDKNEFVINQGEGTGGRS

Consider `CC(C)[C@@H]1NC(=O)[C@H](Cc2c[nH]c3ccccc23)NC(=O)[C@@H]2CCCN2C(=O)[C@@H]2CSCCC(=O)N3CN(CN(C3)C(=O)CCSC[C@H](N)C(=O)N[C@@H](CO)C(=O)N[C@@H](Cc3ccccc3)C(=O)N3CCC[C@H]3C(=O)N[C@@H](CCCCNC(=N)N)C(=O)N2)C(=O)CCSC[C@@H](C(=O)N[C@@H](C)C(N)=O)NC(=O)CNC(=O)[C@H](CCC(=O)O)NC1=O` [Peptide 71] (HELM PEPTIDE1{C.S.F.P.[N=C(N)NCCCC[C@H](N[*:1])C(=O)[*:2]].C.P.W.V.E.G.C.A.[am]}|CHEM1{[O=C(CC[*:1])N1CN(C(=O)CC[*:2])CN(C(=O)CC[*:3])C1]}$PEPTIDE1,CHEM1,1:R3-1:R1|PEPTIDE1,CHEM1,6:R3-1:R2|PEPTIDE1,CHEM1,12:R3-1:R3$$$V2.0), for which the half-life at 5 μM in “Mouse blood stability” is 5.7 h.
As to `CC(=O)N[C@H]1CSCCC(=O)N2CN3CN(C2)C(=O)CCSC[C@H](NC(=O)[C@H](CCCCNC(=N)N)NC(=O)[C@@H]2CCCN2C(=O)[C@H](Cc2ccccc2)NC(=O)[C@H](CO)NC1=O)C(=O)N1CCC[C@H]1C(=O)N[C@@H](Cc1c[nH]c2ccccc12)C(=O)N[C@@H](C(C)C)C(=O)N[C@@H](CCC(=O)O)C(=O)NCC(=O)N[C@H](C(=O)N[C@@H](C)C(N)=O)CSCCC3=O` [Peptide 74] (HELM PEPTIDE1{[ac].C.S.F.P.[N=C(N)NCCCC[C@H](N[*:1])C(=O)[*:2]].C.P.W.V.E.G.C.A.[am]}|CHEM1{[O=C(CC[*:1])N1CN(C(=O)CC[*:2])CN(C(=O)CC[*:3])C1]}$PEPTIDE1,CHEM1,2:R3-1:R1|PEPTIDE1,CHEM1,7:R3-1:R2|PEPTIDE1,CHEM1,13:R3-1:R3$$$V2.0), in “Mouse blood stability”, the half-life at 5 μM was 17.7 h.
As for `C[C@H](N)C(=O)N[C@H]1CSCCC(=O)N2CN3CN(C2)C(=O)CCSC[C@H](NC(=O)[C@H](CCCCN)NC(=O)[C@@H]2CCCN2C(=O)[C@H](Cc2ccccc2)NC(=O)[C@H](CO)NC1=O)C(=O)N1CCC[C@H]1C(=O)N[C@@H](Cc1c[nH]c2ccccc12)C(=O)N[C@H](C)C(=O)N[C@@H](CCC(=O)O)C(=O)NCC(=O)N[C@H](C(=O)N[C@@H](C)C(N)=O)CSCCC3=O` [Peptide 69] (HELM PEPTIDE1{A.C.S.F.P.K.C.P.W.[dA].E.G.C.A.[am]}|CHEM1{[O=C(CC[*:1])N1CN(C(=O)CC[*:2])CN(C(=O)CC[*:3])C1]}$PEPTIDE1,CHEM1,2:R3-1:R1|PEPTIDE1,CHEM1,7:R3-1:R2|PEPTIDE1,CHEM1,13:R3-1:R3$$$V2.0), the equilibrium dissociation constant (Kd) at EcPBP3 [1] was more than 2500 nM. The “MIC E. coli GKCW102 (EcPore)” value with E. coli GKCW102 (EcPore) is more than 16 µg/mL.
Regarding `CC(C)[C@@H]1NC(=O)[C@H](Cc2c[nH]c3ccccc23)NC(=O)[C@@H]2CCCN2C(=O)[C@@H]2CSCCC(=O)N3CN(CN(C3)C(=O)CCSC[C@H](N)C(=O)N[C@@H](CO)C(=O)N[C@@H](Cc3ccccc3)C(=O)N3CCC[C@H]3C(=O)N[C@@H](CCCCNC(=N)N)C(=O)N2)C(=O)CCSC[C@@H](C(N)=O)NC(=O)CNC(=O)[C@H](CCC(=O)O)NC1=O` [Peptide 72, CSFP[HArg]CPWVEGC] (HELM PEPTIDE1{C.S.F.P.[N=C(N)NCCCC[C@H](N[*:1])C(=O)[*:2]].C.P.W.V.E.G.C.[am]}|CHEM1{[O=C(CC[*:1])N1CN(C(=O)CC[*:2])CN(C(=O)CC[*:3])C1]}$PEPTIDE1,CHEM1,1:R3-1:R1|PEPTIDE1,CHEM1,6:R3-1:R2|PEPTIDE1,CHEM1,12:R3-1:R3$$$V2.0), the half-life at 5 μM in “Mouse blood stability” is 3 h.
`CC(=O)N[C@@H](C)C(=O)N[C@H]1CSCCC(=O)N2CN3CN(C2)C(=O)CCSC[C@H](NC(=O)[C@H](CCCCNC(=N)N)NC(=O)[C@@H]2CCCN2C(=O)[C@H](Cc2ccccc2)NC(=O)[C@H](CO)NC1=O)C(=O)N1CCC[C@H]1C(=O)N[C@@H](Cc1c[nH]c2ccccc12)C(=O)N[C@@H](C(C)C)C(=O)N[C@@H](CCC(=O)O)C(=O)NCC(=O)N[C@H](C(=O)N[C@@H](C)C(N)=O)CSCCC3=O` [Peptide 73]: in “Mouse blood stability”, the half-life at 5 μM was 14.1 h.
Turning to `CSCC[C@@H]1NC(=O)[C@H](CC(N)=O)NC(=O)[C@H]([C@@H](C)O)NC(=O)[C@H](Cc2ccccc2)NC(=O)[C@H](CCC(=O)O)NC(=O)[C@H](CC(C)C)NC(=O)[C@@H]2CSCCC(=O)N3CN(CN(C3)C(=O)CCSC[C@@H](C(=O)N[C@@H](C)C(N)=O)NC1=O)C(=O)CCSC[C@H](NC(=O)[C@H](C)N)C(=O)N[C@@H](Cc1ccc(O)cc1)C(=O)N[C@@H](CCCCN)C(=O)N[C@@H](Cc1ccc(O)cc1)C(=O)N1CCC[C@H]1C(=O)NCC(=O)N[C@@H](CC(C)C)C(=O)N2` [Peptide 9] (HELM PEPTIDE1{A.C.Y.K.Y.P.G.L.C.L.E.F.T.N.M.C.A.[am]}|CHEM1{[O=C(CC[*:1])N1CN(C(=O)CC[*:2])CN(C(=O)CC[*:3])C1]}$PEPTIDE1,CHEM1,2:R3-1:R1|PEPTIDE1,CHEM1,9:R3-1:R2|PEPTIDE1,CHEM1,16:R3-1:R3$$$V2.0), the IC50 at EcPBP3 [2] was more than 100000 nM.
Take `C[C@H](N)C(=O)N[C@H]1CSCCC(=O)N2CN3CN(C2)C(=O)CCSC[C@H](NC(=O)CNC(=O)[C@H](Cc2ccccc2)NC(=O)[C@H]([C@@H](C)O)NC(=O)[C@H](CCCNC(=N)N)NC1=O)C(=O)N[C@@H](Cc1c[nH]c2ccccc12)C(=O)N[C@@H](Cc1c[nH]c2ccccc12)C(=O)N[C@@H](CCC(=O)O)C(=O)NCC(=O)N[C@H](C(=O)N[C@@H](C)C(N)=O)CSCCC3=O` [Peptide 5]: the equilibrium dissociation constant (Kd) at EcPBP3 [1] is 369 nM. Besides, at EcPBP3 [2], the “IC50 (nM) by fluorescence polarisation with Bocillin FL as tracer, Geometric mean (Lower 95% CI of geo. Mean; Upper 95% CI of geo. Mean, n=number of values)” value is reported as “showed binding to EcPBP3” and the half-maximal inhibitory concentration (IC50) was found to be 1550 nM. Besides, the “MIC E. coli GKCW102 (EcPore)” value against E. coli GKCW102 (EcPore) is “limited activity”.
For the compound `CC(C)C[C@@H]1NC(=O)[C@H](Cc2ccccc2)NC(=O)[C@H](CCC(=O)O)NC(=O)[C@H]([C@@H](C)O)NC(=O)[C@H](C)NC(=O)[C@@H](NC(=O)[C@H](C)N)CSCCC(=O)N2CN3CN(C2)C(=O)CCSC[C@H](NC(=O)[C@H](CC(C)C)NC(=O)[C@@H]2CCCN2C(=O)[C@H](Cc2ccc(O)cc2)NC1=O)C(=O)N[C@@H](Cc1c[nH]c2ccccc12)C(=O)N[C@@H](Cc1c[nH]c2ccccc12)C(=O)N[C@@H](CC(=O)O)C(=O)N[C@@H](CC(N)=O)C(=O)N[C@H](C(=O)N[C@@H](C)C(N)=O)CSCCC3=O` [Peptide 7] (HELM PEPTIDE1{A.C.A.T.E.F.L.Y.P.L.C.W.W.D.N.C.A.[am]}|CHEM1{[O=C(CC[*:1])N1CN(C(=O)CC[*:2])CN(C(=O)CC[*:3])C1]}$PEPTIDE1,CHEM1,2:R3-1:R1|PEPTIDE1,CHEM1,11:R3-1:R2|PEPTIDE1,CHEM1,16:R3-1:R3$$$V2.0), the IC50 at EcPBP3 [2] is more than 100000 nM.
As to `CC(C)C[C@@H]1NC(=O)CNC(=O)[C@@H]2CCCN2C(=O)[C@H](Cc2ccc(O)cc2)NC(=O)[C@H](C)NC(=O)[C@H](Cc2ccc(O)cc2)NC(=O)[C@@H]2CCCN2C(=O)[C@@H](NC(=O)[C@H](C)N)CSCCC(=O)N2CN3CN(C2)C(=O)CCSC[C@H](NC1=O)C(=O)N[C@@H](CC(C)C)C(=O)N[C@@H](CCC(=O)O)C(=O)N[C@@H](Cc1ccccc1)C(=O)N[C@@H](CCCCN)C(=O)N[C@@H](CO)C(=O)N[C@H](C(=O)N[C@@H](C)C(N)=O)CSCCC3=O` [Peptide 11] (HELM PEPTIDE1{A.C.P.Y.A.Y.P.G.L.C.L.E.F.K.S.C.A.[am]}|CHEM1{[O=C(CC[*:1])N1CN(C(=O)CC[*:2])CN(C(=O)CC[*:3])C1]}$PEPTIDE1,CHEM1,2:R3-1:R1|PEPTIDE1,CHEM1,10:R3-1:R2|PEPTIDE1,CHEM1,16:R3-1:R3$$$V2.0), the 50% inhibitory concentration (IC50) on EcPBP3 [2] was more than 100000 nM.
